Data published in patent US20220096535A1, “COMBINATION DRUG THERAPIES OF PDE-5 INHIBITORS AND INHALED NITRIC OXIDE” (BELLEROPHON THERAPEUTICS, priority 2019, published 2022).

Assay: Drug-drug interaction study between pulsed, inhaled nitric oxide and sildenafil in healthy volunteers
Description: Inhaled Nitric Oxide (iNO) has been approved for use in infants with hypoxic respiratory failure. Nitric oxide is a selective pulmonary vasodilator, whose action is mediated by the cyclic guanosine monophosphate (cGMP) pathway. […] The objective of this study is to investigate the potential pharmacodynamic interaction between pulsed iNO and sildenafil in healthy volunteers.
Five healthy volunteers received sildenafil for 24 hours prior to the addition of iNO. Changes in pharmacodynamics parameters such as Heart Rate, Blood Pressure, and Oxygen Saturation after dosing with both drugs was assessed for 27 hours and hourly for 4 hours post iNO discontinuation.
FIG. 7 illustrates the protocol design for this study. Briefly, on Day 1, subjects were dosed with sildenafil alone. One dose of 20 mg sildenafil was administered every […] on day 1 for a total of 3 doses on day 1. Vital signs (heart rate, blood pressure, and oxygen saturation) were assessed beginning 1 hour prior to administration of sildenafil and every 30 minutes until 2.5 hours after each dose of sildenafil. Adverse events were also monitored. On days 2-3, the sildenafil regimen was continued as administered on day 1, and supplemented with 27.5 hours of pulsed iNO therapy at 75 mcg/kg individual body weight (IBW)/hr (INOPulse). Vital signs were assessed beginning 1 hour prior to administration of iNO and every 30 minutes until 2.5 hours after each dose of sildenafil. Upon discontinuation of iNO, vital signs were measured hourly for a 4-hour period, and subjects were monitored for syncope and lightheadedness. Nitric oxide metabolites were measured throughout administration of iNO and for 4 hours post-discontinuation of iNO.

| Structure (SMILES) | Synergistic interaction (hypotensive drug-drug interaction) between iNO and sildenafil (even at peak levels of metabolites, all volunteers) | Other adverse events (iNO 75 mcg/kg IBW/hr co-administered with 20 mg sildenafil) | Syncope, lightheadedness, or signs of rebound upon discontinuation of iNO (monitored for 4 hours after iNO discontinuation, sildenafil background) | Systolic and diastolic blood pressures during co-administration of iNO, compared to first 3 doses of sildenafil alone (pulsed iNO 75 mcg/kg IBW/hr for 27.5 hours with 20 mg sildenafil, sildenafil doses 4 and 5, and peak nitric oxide metabolites (doses 6 and 7)) | Blood pressure after dosing with sildenafil alone (5 healthy volunteers, 20 mg sildenafil every 6 hours, all 3 doses on day 1, within 2.5 hours after dosing) |
| --- | --- | --- | --- | --- | --- |
| [N]=O [iNO, nitric oxide] | No synergistic interaction | no other adverse events were identified | no instances of syncope, lightheadedness, or signs of possible rebound | no further decline | – |
| CCCc1nn(C)c2c(=O)[nH]c(-c3cc(S(=O)(=O)N4CCN(C)CC4)ccc3OCC)nc12 [sildenafil] | – | – | – | – | drop in blood pressure |
